Experimental data taken from PubChem BioAssay (NCI).
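Interpolation was linear, between the two tested concentrations surrounding the appropriate level; five concentrations were tested over 48 hours in 96-well plates. TGI marks complete inhibition of growth.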

Key:
Experiment in all cases: NCI tumour cell line growth inhibition, 48 h
SK-MEL-5 melanoma = tested on: SK-MEL-5 melanoma
EKVX NSCLC = tested on: EKVX NSCLC
DLD-1 colon = tested on: DLD-1 colon
UACC-62 melanoma = tested on: UACC-62 melanoma
HOP-92 NSCLC = tested on: HOP-92 NSCLC
786-0 renal = tested on: 786-0 renal
SF-268 CNS = tested on: SF-268 CNS
SK-OV-3 ovarian = tested on: SK-OV-3 ovarian
XF 498 CNS = tested on: XF 498 CNS
ACHN renal = tested on: ACHN renal
HCT-15 colon = tested on: HCT-15 colon
M14 melanoma = tested on: M14 melanoma
K-562 leukemia = tested on: K-562 leukemia
SN12C renal = tested on: SN12C renal
MOLT-4 leukemia = tested on: MOLT-4 leukemia
A549 NSCLC = tested on: A549 NSCLC
DMS 273 small cell lung = tested on: DMS 273 small cell lung
COLO 205 colon = tested on: COLO 205 colon
DMS 114 small cell lung = tested on: DMS 114 small cell lung
UO-31 renal = tested on: UO-31 renal
HL-60(TB) leukemia = tested on: HL-60(TB) leukemia
A498 renal = tested on: A498 renal
HT29 colon = tested on: HT29 colon
CCRF-CEM leukemia = tested on: CCRF-CEM leukemia
SF-295 CNS = tested on: SF-295 CNS
OVCAR-8 ovarian = tested on: OVCAR-8 ovarian
SW-620 colon = tested on: SW-620 colon
HCT-116 colon = tested on: HCT-116 colon
SK-MEL-28 melanoma = tested on: SK-MEL-28 melanoma
KM20L2 colon = tested on: KM20L2 colon
SF-539 CNS = tested on: SF-539 CNS
TK-10 renal = tested on: TK-10 renal
M19-MEL melanoma = tested on: M19-MEL melanoma
IGROV1 ovarian = tested on: IGROV1 ovarian
NCI-H460 lung = tested on: NCI-H460 lung
LOX IMVI melanoma = tested on: LOX IMVI melanoma
HOP-18 NSCLC = tested on: HOP-18 NSCLC
LXFL 529 NSCLC = tested on: LXFL 529 NSCLC
RPMI-8226 leukemia = tested on: RPMI-8226 leukemia
U251 CNS = tested on: U251 CNS
OVCAR-4 ovarian = tested on: OVCAR-4 ovarian
UACC-257 melanoma = tested on: UACC-257 melanoma
MDA-MB-231 breast = tested on: MDA-MB-231 breast
KM12 colon = tested on: KM12 colon
SK-MEL-2 melanoma = tested on: SK-MEL-2 melanoma
RXF 393 renal = tested on: RXF 393 renal
PC-3 prostate = tested on: PC-3 prostate
NCI-H226 lung = tested on: NCI-H226 lung
NCI-H23 lung = tested on: NCI-H23 lung
DU-145 prostate = tested on: DU-145 prostate
SNB-19 CNS = tested on: SNB-19 CNS
MALME-3M melanoma = tested on: MALME-3M melanoma
T-47D breast = tested on: T-47D breast
OVCAR-5 ovarian = tested on: OVCAR-5 ovarian
HOP-62 NSCLC = tested on: HOP-62 NSCLC
HCC-2998 colon = tested on: HCC-2998 colon
MCF7 breast = tested on: MCF7 breast
SNB-75 CNS = tested on: SNB-75 CNS
SR leukemia = tested on: SR leukemia
OVCAR-3 ovarian = tested on: OVCAR-3 ovarian
HS 578T breast = tested on: HS 578T breast
BT-549 breast = tested on: BT-549 breast
NCI-H522 lung = tested on: NCI-H522 lung
SNB-78 CNS = tested on: SNB-78 CNS
MDA-MB-435 = tested on: MDA-MB-435
CAKI-1 renal = tested on: CAKI-1 renal
RXF-631 renal = tested on: RXF-631 renal

## COc1ccc(/C=C/C(=O)c2c(-c3ccccc3)nn(C)c(=O)c2N2CCCC2)cc1
SK-MEL-5 melanoma
  TGI: > 100 µM
EKVX NSCLC
  TGI: > 100 µM
DLD-1 colon
  TGI: > 100 µM
UACC-62 melanoma
  TGI: > 100 µM
HOP-92 NSCLC
  TGI: 37.5 µM
786-0 renal
  TGI: > 100 µM
SF-268 CNS
  TGI: > 100 µM
SK-OV-3 ovarian
  TGI: > 100 µM
XF 498 CNS
  TGI: > 100 µM
ACHN renal
  TGI: > 100 µM
HCT-15 colon
  TGI: > 100 µM
M14 melanoma
  TGI: > 100 µM
K-562 leukemia
  TGI: > 100 µM
SN12C renal
  TGI: > 100 µM
MOLT-4 leukemia
  TGI: > 100 µM
A549 NSCLC
  TGI: > 100 µM
DMS 273 small cell lung
  TGI: > 100 µM
COLO 205 colon
  TGI: > 100 µM
DMS 114 small cell lung
  TGI: > 100 µM
UO-31 renal
  TGI: > 100 µM
HL-60(TB) leukemia
  TGI: > 100 µM
A498 renal
  TGI: > 100 µM
HT29 colon
  TGI: > 100 µM
CCRF-CEM leukemia
  TGI: > 100 µM
SF-295 CNS
  TGI: > 100 µM
OVCAR-8 ovarian
  TGI: > 100 µM
SW-620 colon
  TGI: > 100 µM
HCT-116 colon
  TGI: > 100 µM
SK-MEL-28 melanoma
  TGI: > 100 µM
KM20L2 colon
  TGI: > 100 µM
SF-539 CNS
  TGI: > 100 µM
TK-10 renal
  TGI: > 100 µM
M19-MEL melanoma
  TGI: > 100 µM
IGROV1 ovarian
  TGI: > 100 µM
NCI-H460 lung
  TGI: > 100 µM
LOX IMVI melanoma
  TGI: > 100 µM
HOP-18 NSCLC
  TGI: > 100 µM
LXFL 529 NSCLC
  TGI: > 100 µM
RPMI-8226 leukemia
  TGI: > 100 µM
U251 CNS
  TGI: > 100 µM

## NCc1ccc(O)c(O)c1O
OVCAR-4 ovarian
  TGI: 41 µM
SK-MEL-5 melanoma
  TGI: 56 µM
EKVX NSCLC
  TGI: > 100 µM
DLD-1 colon
  TGI: 37.2 µM
UACC-62 melanoma
  TGI: > 67.3 µM
UACC-257 melanoma
  TGI: > 75.6 µM
HOP-92 NSCLC
  TGI: > 96 µM
786-0 renal
  TGI: 30.1 µM
MDA-MB-231 breast
  TGI: 43.5 µM
KM12 colon
  TGI: 49 µM
SK-MEL-2 melanoma
  TGI: 57.2 µM
RXF 393 renal
  TGI: > 81.1 µM
PC-3 prostate
  TGI: > 100 µM
SF-268 CNS
  TGI: 61.6 µM
SK-OV-3 ovarian
  TGI: > 100 µM
XF 498 CNS
  TGI: 56.4 µM
NCI-H226 lung
  TGI: > 66.7 µM
ACHN renal
  TGI: 55.4 µM
NCI-H23 lung
  TGI: > 67.3 µM
HCT-15 colon
  TGI: 47.7 µM
M14 melanoma
  TGI: 27.7 µM
K-562 leukemia
  TGI: 60.6 µM
DU-145 prostate
  TGI: > 100 µM
SN12C renal
  TGI: 37.3 µM
MOLT-4 leukemia
  TGI: 64.9 µM
A549 NSCLC
  TGI: 63.2 µM
DMS 273 small cell lung
  TGI: 31 µM
SNB-19 CNS
  TGI: > 97.3 µM
COLO 205 colon
  TGI: 35.5 µM
DMS 114 small cell lung
  TGI: 42.8 µM
MALME-3M melanoma
  TGI: > 100 µM
UO-31 renal
  TGI: > 100 µM
HL-60(TB) leukemia
  TGI: 59.1 µM
T-47D breast
  TGI: 71.6 µM
OVCAR-5 ovarian
  TGI: 40.5 µM
A498 renal
  TGI: > 100 µM
HOP-62 NSCLC
  TGI: > 73.9 µM
HCC-2998 colon
  TGI: > 81.7 µM
MCF7 breast
  TGI: 36.3 µM
HT29 colon
  TGI: 29.2 µM
CCRF-CEM leukemia
  TGI: 56.6 µM
SF-295 CNS
  TGI: > 57.7 µM
OVCAR-8 ovarian
  TGI: 49.1 µM
SW-620 colon
  TGI: 43.3 µM
SNB-75 CNS
  TGI: > 100 µM
SR leukemia
  TGI: 62 µM
HCT-116 colon
  TGI: 30.5 µM
SK-MEL-28 melanoma
  TGI: > 100 µM
OVCAR-3 ovarian
  TGI: 47 µM
HS 578T breast
  TGI: 54.9 µM
BT-549 breast
  TGI: 34.2 µM
KM20L2 colon
  TGI: > 80.9 µM
SF-539 CNS
  TGI: > 62.5 µM
TK-10 renal
  TGI: > 100 µM
M19-MEL melanoma
  TGI: 26.9 µM
IGROV1 ovarian
  TGI: > 86.3 µM
NCI-H460 lung
  TGI: 34 µM
LOX IMVI melanoma
  TGI: 32 µM
NCI-H522 lung
  TGI: > 90.9 µM
HOP-18 NSCLC
  TGI: > 100 µM
LXFL 529 NSCLC
  TGI: 30.6 µM
SNB-78 CNS
  TGI: > 100 µM
MDA-MB-435
  TGI: 32.7 µM
RPMI-8226 leukemia
  TGI: 64.8 µM
U251 CNS
  TGI: 52.6 µM
CAKI-1 renal
  TGI: > 46.4 µM

## CCCCCCN(CCCCCC)C1=CC(=O)C(=O)c2ccccc21
OVCAR-4 ovarian
  TGI: 29.2 µM
SK-MEL-5 melanoma
  TGI: 30.9 µM
EKVX NSCLC
  TGI: 27.7 µM
DLD-1 colon
  TGI: 32.3 µM
UACC-62 melanoma
  TGI: 30.8 µM
UACC-257 melanoma
  TGI: 28.6 µM
HOP-92 NSCLC
  TGI: 28.7 µM
786-0 renal
  TGI: 30.3 µM
KM12 colon
  TGI: 31.5 µM
SK-MEL-2 melanoma
  TGI: 35.1 µM
RXF 393 renal
  TGI: 40.5 µM
SF-268 CNS
  TGI: 36.6 µM
SK-OV-3 ovarian
  TGI: 31.6 µM
NCI-H226 lung
  TGI: 34.7 µM
ACHN renal
  TGI: 30.9 µM
NCI-H23 lung
  TGI: 27.8 µM
HCT-15 colon
  TGI: 34.8 µM
M14 melanoma
  TGI: 32.4 µM
K-562 leukemia
  TGI: 46.4 µM
SN12C renal
  TGI: 30.3 µM
MOLT-4 leukemia
  TGI: 51.3 µM
A549 NSCLC
  TGI: 36.5 µM
DMS 273 small cell lung
  TGI: 34.7 µM
SNB-19 CNS
  TGI: 29.6 µM
COLO 205 colon
  TGI: 31.4 µM
MALME-3M melanoma
  TGI: 35.8 µM
RXF-631 renal
  TGI: 38.3 µM
UO-31 renal
  TGI: 26.2 µM
HL-60(TB) leukemia
  TGI: 34.6 µM
OVCAR-5 ovarian
  TGI: 33.2 µM
A498 renal
  TGI: 41.6 µM
HOP-62 NSCLC
  TGI: 32.8 µM
HCC-2998 colon
  TGI: 35.6 µM
HT29 colon
  TGI: 35.6 µM
CCRF-CEM leukemia
  TGI: > 100 µM
SF-295 CNS
  TGI: 29.1 µM
OVCAR-8 ovarian
  TGI: 29.7 µM
SW-620 colon
  TGI: 27.3 µM
SNB-75 CNS
  TGI: 31.1 µM
SR leukemia
  TGI: 63.3 µM
HCT-116 colon
  TGI: 32.9 µM
SK-MEL-28 melanoma
  TGI: 31.8 µM
OVCAR-3 ovarian
  TGI: 14 µM
KM20L2 colon
  TGI: 37.6 µM
SF-539 CNS
  TGI: 30.9 µM
TK-10 renal
  TGI: 36.1 µM
M19-MEL melanoma
  TGI: 4.99 µM
IGROV1 ovarian
  TGI: 31.1 µM
NCI-H460 lung
  TGI: 33.6 µM
LOX IMVI melanoma
  TGI: 22.1 µM
NCI-H522 lung
  TGI: 24.2 µM
HOP-18 NSCLC
  TGI: 29.7 µM
LXFL 529 NSCLC
  TGI: 33.4 µM
SNB-78 CNS
  TGI: 51.8 µM
RPMI-8226 leukemia
  TGI: 60.2 µM
U251 CNS
  TGI: 29.3 µM
CAKI-1 renal
  TGI: 28.6 µM
